Results as given in patent US20070049564A1 (Wyeth, priority 2005, published 2007).
Values after ≈ are worked out from the molar mass of the structure shown. Where two headings read alike, the source gives them in different places.

Columns and labels:
E. coli #311 = assay: In vivo activity (oral, iv; ED50) against E. coli in mice; conditions: for ED50: Escherichia coli
Description: . […] Smith and E. Coli #311 in mammals.
Results of the tests (MIC, oral and IV) are list in Table 7.

Staph. aureus Smith [1] = assay: In vitro activity (MIC) against Staph. aureus Smith; type: cell-based; conditions: for MIC: Staphylococcus aureus
E. coli [2] = assay: Range of MIC for E. coli strains; conditions: for MIC: Escherichia coli
Staph. = assay: Range of MIC for Staph. strains, including MRSA; conditions: for MIC: Staphylococcus aureus
Staph. aureus Smith [3] = assay: In vivo activity (oral, iv; ED50) against Staph. aureus Smith in mice
Description: Representative examples of compounds of Formula I were tested for the oral efficacy using S. aureus Smith in mice.

E. coli [4] = assay: In vitro activity (MIC) against E. coli (Table 7); type: cell-based
[5] = system: E. coli, tet(A-D), efflux; assay: In vitro activity (MIC), strain groups; conditions: E. coli, tet(A-D), efflux; Mouse serum
Description: (§1) Antimicrobial susceptibility testing. The in vitro activities of the antibiotics are determined by the broth microdilution method as recommended by the National Committee for Clinical Laboratory Standards (NCCLS) (1). Mueller-Hinton II broth (MHBII)(BBL Cockeysville, Md.) is the medium employed in the testing procedures. Microtiter plates containing serial dilutions of each antimicrobial agent are inoculated with each organism to yield the appropriate density (10^5 CFU/ml) in a 100 μl final volume. The plates are incubated for 18-22 hours at 35° C. in ambient air.
(§2) Representative compounds were first incubated in mouse serum for an hour prior to the in vitro testing against a panel of selected gram-positive and gram-negative bacteria strains. All compounds were also pre-incubated in water for an hour prior to testing as control. Representative compounds of Formula I were incubated in human serum prior to MIC determination.

[6] = system: E. coli, tet (M,S,O) Tet (M); assay: In vitro activity (MIC), strain groups; conditions: E. coli, tet (M,S,O) Tet (M)
Description: as §1
(§3) Presented in Tables I-XIII are representative compounds of Formula I which were evaluated against a panel of 40 selected gram-positive and gram-negative bacteria strains by pre-incubation in water, mouse serum or human serum. Representative compounds were first incubated in mouse serum for an hour prior to the in vitro testing against a panel of selected gram-positive and gram-negative bacteria strains. All compounds were also pre-incubated in water for an hour prior to testing as control. Representative compounds of Formula I were incubated in human serum prior to MIC determination.

S. aureus, tet (M) = assay: In vitro activity (MIC), strain groups
Description: as §1, §2

Enterococcus spp. = assay: In vitro activity (MIC), strain groups; conditions: Enterococcus spp.
Description: as §1, §3

Streptococcus spp. = assay: In vitro activity (MIC), strain groups; conditions: Streptococcus spp.
Description: as §1, §3

[7] = single intravenous dose (SIV), read-out: ED50 E. coli #311 SIV
[8] = single oral dose (SOD), read-out: ED50 E. coli #311 SOD
[9] = 20 h, read-out: Range of MIC, E. coli (Mouse Serum)
[10] = read-out: Minimum inhibitory concentration (MIC), E. coli (Human Serum)
[11] = read-out: Range of MIC, E. coli (mouse serum)
[12] = MRSA, read-out: Range of MIC, Staph (Mouse Serum)
[13] = MRSA, read-out: Range of MIC, Staph (Water)
[14] = MRSA, read-out: Range of MIC, Staph. (mouse serum)
[15] = MRSA, read-out: Range of MIC, Staph. (water)
[16] = read-out: Minimum inhibitory concentration (MIC), Staph (Human Serum)
[17] = read-out: Minimum inhibitory concentration (MIC), Staph (Water)
[18] = Staphylococcus aureus, in Mus musculus, iv, read-out: ED50 SIV (Staph aureus Smith)
[19] = Staphylococcus aureus, in Mus musculus, po, read-out: ED50 SOD (Staph aureus Smith)
[20] = Staphylococcus aureus, in Mus musculus, po, read-out: ED50 Staph Smith SOD
[21] = iv, read-out: ED50 Staph Smith SIV
[22] = read-out: Minimum inhibitory concentration (MIC), E. coli (mouse serum)
[23] = read-out: Minimum inhibitory concentration (MIC), E. coli (water)
[24] = read-out: Range of MIC, E. coli (Water)
[25] = MRSA, read-out: Minimum inhibitory concentration (MIC), Staph. (mouse serum)
[26] = MRSA, read-out: Minimum inhibitory concentration (MIC), Staph. (water)

Compound: CCCCCCC(=O)OCOC(=O)N(CCC)CC(=O)Nc1cc(N(C)C)c2c(c1O)C(=O)C1=C(O)[C@]3(O)C(=O)C(C(N)=O)=C(O)[C@@H](N(C)C)[C@@H]3C[C@@H]1C2 [Example 19, ({[(2-{[(5aR,6aS,7S,10aS)-9-(aminocarbonyl)-4,7-bis(dimethylamino)-1,8,10a,11-tetrahydroxy-10,12-dioxo-5,5a,6,6a,7,10,10a,12-octahydrotetracen-2-yl]amino}-2-oxoethyl)(propyl)amino]carbonyl}oxy)methyl heptanoate]
- ED50 (E. coli #311; [7]): > 2 mg/kg
- ED50 (E. coli #311; [8]): > 32 mg/kg
- MIC (Staph. aureus Smith [1]; Table 8): 1 µg/mL (≈ 1.32 µM)
- MIC (E. coli [2]; [9]): 0.5 to 2 µg/mL (≈ 0.66 to 2.64 µM)
- MIC (E. coli [2]; [10]): 8 to 32 µg/mL (≈ 10.6 to 42.2 µM)
- MIC (E. coli [2]; [11]): 0.5 to 2 µg/mL (≈ 0.66 to 2.64 µM)
- MIC (Staph.; [12]): 0.5 to 4 µg/mL (≈ 0.66 to 5.28 µM)
- MIC (Staph.; [13]): 1 to 8 µg/mL (≈ 1.32 to 10.6 µM)
- MIC (Staph.; [14]): 0.5 to 4 µg/mL (≈ 0.66 to 5.28 µM)
- MIC (Staph.; [15]): 1 to 8 µg/mL (≈ 1.32 to 10.6 µM)
- MIC (Staph.; [16]): 0.12 to 1 µg/mL (≈ 0.158 to 1.32 µM)
- MIC (Staph.; [17]): 0.25 to 4 µg/mL (≈ 0.33 to 5.28 µM)
- ED50 (Staph. aureus Smith [3]; [18]): 0.31 mg/kg
- ED50 (Staph. aureus Smith [3]; [19]): 8.05 mg/kg
- ED50 (Staph. aureus Smith [3]; [20]): 8.05 mg/kg
- ED50 (Staph. aureus Smith [3]; [21]): 0.31 mg/kg

Compound: CCCCN(CC(=O)Nc1cc(N(C)C)c2c(c1O)C(=O)C1=C(O)[C@]3(O)C(=O)C(C(N)=O)=C(O)[C@@H](N(C)C)[C@@H]3C[C@@H]1C2)C(=O)OCOC(=O)CC(C)(C)C [Example 36, ({[(2-{[(5aR,6aS,7S,10aS)-9-(aminocarbonyl)-4,7-bis(dimethylamino)-1,8,10a,11-tetrahydroxy-10,12-dioxo-5,5a,6,6a,7,10,10a,12-octahydrotetracen-2-yl]amino}-2-oxoethyl)(butyl)amino]carbonyl}oxy)methyl 3,3-dimethylbutanoate]
- MIC (Staph. aureus Smith [1]; Table 8): 8 µg/mL (≈ 10.6 µM)
- MIC (E. coli [2]; [9]): 2 to 8 µg/mL (≈ 2.64 to 10.6 µM)
- MIC (E. coli [2]; [22]): 2 to 8 µg/mL (≈ 2.64 to 10.6 µM)
- MIC (E. coli [2]; [23]): 8 to 32 µg/mL (≈ 10.6 to 42.2 µM)
- MIC (E. coli [2]; [24]): 8 to 32 µg/mL (≈ 10.6 to 42.2 µM)
- MIC (Staph.; [25]): 2 to 4 µg/mL (≈ 2.64 to 5.28 µM)
- MIC (Staph.; [26]): 4 to 16 µg/mL (≈ 5.28 to 21.1 µM)
- MIC (Staph.; [12]): 2 to 4 µg/mL (≈ 2.64 to 5.28 µM)
- MIC (Staph.; [13]): 4 to 16 µg/mL (≈ 5.28 to 21.1 µM)
- ED50 (Staph. aureus Smith [3]; [18]): 0.84 mg/kg
- ED50 (Staph. aureus Smith [3]; [19]): 5.15 mg/kg
- ED50 (Staph. aureus Smith [3]; [20]): 5.15 mg/kg
- ED50 (Staph. aureus Smith [3]; [21]): 0.84 mg/kg

Compound: CCCCN(CC(=O)Nc1cc(N(C)C)c2c(c1O)C(=O)C1=C(O)[C@]3(O)C(=O)C(C(N)=O)=C(O)[C@@H](N(C)C)[C@@H]3C[C@@H]1C2)C(=O)OCOC(=O)CC1CCCC1 [Example 38, ({[(2-{[(5aR,6aS,7S,10aS)-9-(aminocarbonyl)-4,7-bis(dimethylamino)-1,8,10a,11-tetrahydroxy-10,12-dioxo-5,5a,6,6a,7,10,10a,12-octahydrotetracen-2-yl]amino}-2-oxoethyl)(butyl)amino]carbonyl}oxy)methyl cyclopentylacetate]
- MIC (Staph. aureus Smith [1]; Table 8): 2 µg/mL (≈ 2.6 µM)
- MIC (E. coli [2]; [9]): 0.5 to 4 µg/mL (≈ 0.649 to 5.2 µM)
- MIC (E. coli [2]; [22]): 0.5 to 4 µg/mL (≈ 0.649 to 5.2 µM)
- MIC (Staph.; [25]): 0.5 to 2 µg/mL (≈ 0.649 to 2.6 µM)
- MIC (Staph.; [26]): 1 to 8 µg/mL (≈ 1.3 to 10.4 µM)
- MIC (Staph.; [12]): 0.5 to 2 µg/mL (≈ 0.649 to 2.6 µM)
- MIC (Staph.; [13]): 1 to 8 µg/mL (≈ 1.3 to 10.4 µM)
- ED50 (Staph. aureus Smith [3]; [18]): 0.6 mg/kg
- ED50 (Staph. aureus Smith [3]; [19]): 5.3 mg/kg
- ED50 (Staph. aureus Smith [3]; [20]): 5.3 mg/kg
- ED50 (Staph. aureus Smith [3]; [21]): 0.6 mg/kg

Compound: CCCN(CC(=O)Nc1cc(N(C)C)c2c(c1O)C(=O)C1=C(O)[C@]3(O)C(=O)C(C(N)=O)=C(O)[C@@H](N(C)C)[C@@H]3C[C@@H]1C2)C(=O)OCOC(=O)CC1CCCC1 [Example 40, ({[(2-{[(5aR,6aS,7S,10aS)-9-(aminocarbonyl)-4,7-bis(dimethylamino)-1,8,10a,11-tetrahydroxy-10,12-dioxo-5,5a,6,6a,7,10,10a,12-octahydrotetracen-2-yl]amino}-2-oxoethyl)(propyl)amino]carbonyl}oxy)methyl cyclopentylacetate]
- MIC (Staph. aureus Smith [1]; Table 8): 0.5 µg/mL (≈ 0.662 µM)
- MIC (E. coli [2]; [9]): 1 to 2 µg/mL (≈ 1.32 to 2.65 µM)
- MIC (E. coli [2]; [11]): 1 to 2 µg/mL (≈ 1.32 to 2.65 µM)
- MIC (Staph.; [12]): 0.25 to 2 µg/mL (≈ 0.331 to 2.65 µM)
- MIC (Staph.; [13]): 0.25 to 2 µg/mL (≈ 0.331 to 2.65 µM)
- MIC (Staph.; [14]): 0.25 to 2 µg/mL (≈ 0.331 to 2.65 µM)
- MIC (Staph.; [15]): 0.25 to 2 µg/mL (≈ 0.331 to 2.65 µM)
- ED50 (Staph. aureus Smith [3]; [18]): 0.39 mg/kg
- ED50 (Staph. aureus Smith [3]; [19]): 4.65 mg/kg
- ED50 (Staph. aureus Smith [3]; [20]): 4.65 mg/kg
- ED50 (Staph. aureus Smith [3]; [21]): 0.39 mg/kg

Compound: CN(C)c1cc(NC(=O)CN(C(=O)OCOC(=O)CC2CCCC2)C(C)(C)C)c(O)c2c1C[C@H]1C[C@H]3[C@H](N(C)C)C(O)=C(C(N)=O)C(=O)[C@@]3(O)C(O)=C1C2=O [Example 54, ({[(2-{[(5aR,6aS,7S,10aS)-9-(aminocarbonyl)-4,7-bis(dimethylamino)-1,8,10a,11-tetrahydroxy-10,12-dioxo-5,5a,6,6a,7,10,10a,12-octahydrotetracen-2-yl]amino}-2-oxoethyl)(tert-butyl)amino]carbonyl}oxy)methyl cyclopentylacetate]
- ED50 (E. coli #311; [7]): 3.72 mg/kg
- ED50 (E. coli #311; single intravenous dose, mice, Table 7, read-out: ED50 SIV (E. coli)): 2.16 mg/kg
- ED50 (E. coli #311; [8]): > 32 mg/kg
- ED50 (E. coli #311; single oral dose, mice, Table 7, read-out: ED50 SOD (E. coli)): 29.2 mg/kg
- MIC (Staph. aureus Smith [1]; Table 6): 0.5 µg/mL (≈ 0.649 µM)
- MIC (E. coli [4]; Escherichia coli): > 64 µg/mL
- MIC (E. coli [2]; [9]): 0.5 to 1 µg/mL (≈ 0.649 to 1.3 µM)
- MIC (E. coli [2]; [10]): 16 to 32 µg/mL (≈ 20.8 to 41.6 µM)
- MIC (E. coli [2]; [23]): > 64 µg/mL
- MIC (E. coli [2]; [24]): > 64 µg/mL
- MIC (Staph.; [12]): 0.5 to 2 µg/mL (≈ 0.649 to 2.6 µM)
- MIC (Staph.; [13]): 1 to 4 µg/mL (≈ 1.3 to 5.2 µM)
- MIC (Staph.; [16]): 0.5 to 2 µg/mL (≈ 0.649 to 2.6 µM)
- MIC (Staph.; [17]): 1 to 4 µg/mL (≈ 1.3 to 5.2 µM)
- ED50 (Staph. aureus Smith [3]; [18]): 0.83 mg/kg
- ED50 (Staph. aureus Smith [3]; [19]): 8.4 mg/kg
- ED50 (Staph. aureus Smith [3]; [20]): > 16 mg/kg
- ED50 (Staph. aureus Smith [3]; [21]): 1.17 mg/kg

Compound: [({[(5aR,6aS,7S,10aS)-9-(aminocarbonyl)-4,7-bis(dimethylamino)-1,8,10a,11-tetrahydroxy-10,12-dioxo-5,5a,6,6a,7,10,10a,12-octahydrotetracen-2-yl]amino}carbonyl)oxy]methyl 4-tert-butylbenzoate [Example 87]
- ED50 SIV (E. coli) (E. coli #311; single intravenous dose, mice, Table 7): 3.6 mg/kg
- ED50 SOD (E. coli) (E. coli #311; single oral dose, mice, Table 7): 60.4 mg/kg
- MIC (Staph aureus Smith) (Staph. aureus Smith [1]; Table 6): 32 µg/mL
- MIC (E. coli) (E. coli [4]): >64 µg/mL
- Range of MIC, E. coli (Water) (E. coli [2]; Water, Table 1): >64 µg/mL
- In vitro activity (MIC) [5]: 0.25-0.5
- In vitro activity (MIC) ([6]; Human serum): >64
- In vitro activity (MIC) ([6]; Mouse serum): 0.25-0.5
- In vitro activity (MIC) ([6]; water): >64
- In vitro activity (MIC) (S. aureus, tet (M); Human serum): 16
- In vitro activity (MIC) (S. aureus, tet (M); Mouse serum): 0.5
- In vitro activity (MIC) (S. aureus, tet (M); water): 64
- In vitro activity (MIC) (Enterococcus spp.; Human serum): 0.25-8
- In vitro activity (MIC) (Enterococcus spp.; Mouse serum): 0.12-0.5
- In vitro activity (MIC) (Enterococcus spp.; water): 0.25-32
- In vitro activity (MIC) (Streptococcus spp.; Human serum): 1-2
- In vitro activity (MIC) (Streptococcus spp.; water): 0.5-2
- Range of MIC, Staph (Mouse Serum) (Staph.; Mouse Serum, including MRSA, Table 1): 32 to 64 µg/mL
- Range of MIC, Staph (Water) (Staph.; Water, including MRSA, Table 1): >64 µg/mL
- ED50 SIV (Staph aureus Smith) (Staph. aureus Smith [3]; single intravenous dose, mice, Table 6): 0.83 mg/kg
- ED50 SOD (Staph aureus Smith) (Staph. aureus Smith [3]; single oral dose, mice, Table 6): 12.82 mg/kg
